Laboratory results published in ChEMBL document CHEMBL3868595, “Plazomicin is effective in a non-human primate pneumonic plague model” (Bioorg Med Chem, 2016).

What was measured:
Yersinia pestis [1] = test: (§1) Antibacterial activity against Yersinia pestis Colorado 92 infected in African green monkey B6415 model assessed as bacterial burden in liver at 25 mg/kg, iv administered within 6 hrs post onset of sustained fever as 30 mins infusion for 5 days (reference value: 5.2 10^8CFU/g); type: functional, CO92
Yersinia pestis [2] = test: Antibacterial activity against Yersinia pestis Colorado 92 infected in African green monkey C2083 model assessed as bacterial burden in heart at 12.5 mg/kg, iv administered within 6 hrs post onset of sustained fever as 30 mins infusion for 5 days (reference value: 2.6 10^7CFU/g); type: functional, CO92
Yersinia pestis [3] = test: as §1, with “monkey B6127” for “monkey B6415”, “in tracheobronchial lymph nodes” for “in liver”, “for 10” for “for 5”, “value: 7.7 10^9CFU/g)” for “value: 5.2 10^8CFU/g)”; type: functional, organism-based; conditions: CO92, Lymph node
Yersinia pestis [4] = test: Antibacterial activity against Yersinia pestis Colorado 92 infected in African green monkey B6783 model assessed as bacterial burden in brain at 12.5 mg/kg, iv administered within 6 hrs post onset of sustained fever as 30 mins infusion for 5 days (reference value: 1.9 10^6CFU/g); type: functional, CO92
Yersinia pestis [5] = test: Antibacterial activity against Yersinia pestis Colorado 92 infected in African green monkey B6436 model assessed as bacterial burden in kidney at 25 mg/kg, iv administered within 6 hrs post onset of sustained fever as 30 mins infusion for 5 days (reference value: 7.1 10^7CFU/g); type: functional, organism-based; conditions: CO92
Yersinia pestis [6] = test: Antibacterial activity against Yersinia pestis Colorado 92 infected in African green monkey B6436 model assessed as bacterial burden in spleen at 25 mg/kg, iv administered within 6 hrs post onset of sustained fever as 30 mins infusion for 5 days (reference value: 1.6 10^9CFU/g); type: functional, organism-based; conditions: CO92
African green monkey [7] = test: Toxicity in African green monkey B6428 model infected with Yersinia pestis Colorado 92 assessed as serum creatinine level at 25 mg/kg, iv administered within 6 hrs post onset of sustained fever as 30 mins infusion for 10 days (reference value: 0.8 mg/dl); type: organism-based; conditions: chlorocebus sabaeus, in vivo
[8] = AUC (0 to 24 hrs) in African green monkey blood at 35 mg/kg administered as iv infusion twice daily for 7 consecutive days measured on day 7 by LC-MS/MS analysis; type: ADME, organism-based; design: time < 24 hr, dose 35 mg/kg, route intravenous; conditions: chlorocebus aethiops
African green monkey [9] = test: Toxicity in African green monkey assessed as effect on serum creatinine level at 25 mg/kg administered as iv infusion twice daily for 7 consecutive days measured on day 7 by LC-MS/MS analysis; type: organism-based; conditions: chlorocebus sabaeus, in vivo
African green monkey [10] = test: Toxicity in African green monkey B5994 model infected with Yersinia pestis Colorado 92 assessed as serum alanine aminotransferase level at 25 mg/kg, iv administered within 6 hrs post onset of sustained fever as 30 mins infusion for 10 days (reference value: 62 IU/L); type: organism-based; conditions: chlorocebus sabaeus, in vivo
[11] = AUC (0 to 24 hrs) in African green monkey blood at 25 mg/kg administered as iv infusion twice daily for 7 consecutive days measured on day 7 by LC-MS/MS analysis; type: ADME, organism-based; design: time < 24 hr, dose 25 mg/kg, route intravenous; conditions: chlorocebus aethiops
Yersinia pestis [12] = test: Antibacterial activity against Yersinia pestis Colorado 92 infected in African green monkey B6960 model assessed as bacterial burden in heart at 6.25 mg/kg, iv administered within 6 hrs post onset of sustained fever as 30 mins infusion for 5 days (reference value: 2.6 10^7CFU/g); type: functional, CO92
African green monkey [13] = test: Toxicity in African green monkey 7337 model infected with Yersinia pestis Colorado 92 assessed as serum gamma glutamyl-transferase level at 25 mg/kg, iv administered within 6 hrs post onset of sustained fever as 30 mins infusion for 10 days (reference value: 67 IU/L); type: organism-based; conditions: chlorocebus sabaeus, in vivo
Yersinia pestis [14] = test: Antibacterial activity against Yersinia pestis Colorado 92 infected in African green monkey B6889 model assessed as bacterial burden in spleen at 6.25 mg/kg, iv administered within 6 hrs post onset of sustained fever as 30 mins infusion for 5 days (reference value: 1.6 10^9CFU/g); type: functional, CO92
African green monkey [15] = test: Toxicity in African green monkey 7643 model infected with Yersinia pestis Colorado 92 assessed as blood urea nitrogen level at 25 mg/kg, iv administered within 6 hrs post onset of sustained fever as 30 mins infusion for 10 days (reference value: 16 mg/dl); type: organism-based; conditions: chlorocebus sabaeus, in vivo
Yersinia pestis [16] = test: Antibacterial activity against Yersinia pestis Colorado 92 infected in African green monkey B6106 model assessed as bacterial burden in heart at 25 mg/kg, iv administered within 6 hrs post onset of sustained fever as 30 mins infusion for 5 days (reference value: 2.6 10^7CFU/g); type: functional, organism-based; conditions: CO92
[17] = Cmax in African green monkey blood at 25 mg/kg administered as iv infusion twice daily for 7 consecutive days measured on day 7 by LC-MS/MS analysis; type: ADME, organism-based; design: dose 25 mg/kg, route intravenous; conditions: chlorocebus aethiops
Yersinia pestis [18] = test: Antibacterial activity against Yersinia pestis Colorado 92 infected in African green monkey B6127 model assessed as bacterial burden in liver at 25 mg/kg, iv administered within 6 hrs post onset of sustained fever as 30 mins infusion for 10 days (reference value: 5.2 10^8CFU/g); type: functional, CO92
Yersinia pestis [19] = test: Antibacterial activity against Yersinia pestis Colorado 92 infected in African green monkey 8047 model assessed as bacterial burden in spleen at 6.25 mg/kg, iv administered within 6 hrs post onset of sustained fever as 30 mins infusion for 10 days (reference value: 1.6 10^9CFU/g); type: functional, CO92
African green monkey [20] = test: Toxicity in African green monkey 8067 model infected with Yersinia pestis Colorado 92 assessed as serum creatinine level at 25 mg/kg, iv administered within 6 hrs post onset of sustained fever as 30 mins infusion for 10 days (reference value: 0.8 mg/dl); type: organism-based; conditions: chlorocebus sabaeus, in vivo
Yersinia pestis [21] = test: Antibacterial activity against Yersinia pestis Colorado 92 infected in African green monkey B6415 model assessed as bacterial burden in brain at 25 mg/kg, iv administered within 6 hrs post onset of sustained fever as 30 mins infusion for 5 days (reference value: 1.9 10^6CFU/g); type: functional, CO92
[22] = Elimination half life in African green monkey blood at 25 mg/kg administered as iv infusion twice daily for 7 consecutive days measured on day 7 by LC-MS/MS analysis; type: ADME, organism-based; conditions: chlorocebus aethiops, read-out: beta t1/2 (converted)
African green monkey [23] = test: Toxicity in African green monkey B6140 model infected with Yersinia pestis Colorado 92 assessed as serum lactate dehydrogenase level at 25 mg/kg, iv administered within 6 hrs post onset of sustained fever as 30 mins infusion for 10 days (reference value: 290 IU/L); type: organism-based; conditions: chlorocebus sabaeus, in vivo
Yersinia pestis [24] = test: Antibacterial activity against Yersinia pestis Colorado 92 infected in African green monkey assessed as survival of monkey at 6.25 mg/kg, iv administered within 6 hrs post onset of sustained fever as 30 mins infusion for 5 days; type: functional; conditions: CO92, iv
Yersinia pestis [25] = test: Antibacterial activity against Yersinia pestis Colorado 92 infected in African green monkey B6861 model assessed as bacterial burden in liver at 6.25 mg/kg, iv administered within 6 hrs post onset of sustained fever as 30 mins infusion for 5 days (reference value: 5.2 10^8CFU/g); type: functional, CO92
[26] = Elimination half life in African green monkey blood at 35 mg/kg administered as iv infusion twice daily for 7 consecutive days measured on day 1 by LC-MS/MS analysis; type: ADME, organism-based; conditions: chlorocebus aethiops, read-out: beta t1/2 (converted)
Yersinia pestis [27] = test: Antibacterial activity against Yersinia pestis Colorado 92 infected in African green monkey B6469 model assessed as bacterial burden in tracheobronchial lymph nodes at 25 mg/kg, iv administered within 6 hrs post onset of sustained fever as 30 mins infusion for 5 days (reference value: 7.7 10^9CFU/g); type: functional, organism-based; conditions: CO92, Lymph node

Structure (SMILES): CN[C@@H]1[C@@H](O)[C@@H](O[C@@H]2[C@@H](O)[C@H](O[C@H]3OC(CNCCO)=CC[C@H]3N)[C@@H](N)C[C@H]2NC(=O)[C@@H](O)CCN)OC[C@]1(C)O [PLAZOMICIN]
- Activity (Yersinia pestis [1]): 2 ×10⁶ CFU/g
- Activity (Yersinia pestis [2]): 1.5 ×10⁷ CFU/g
- Activity (Yersinia pestis [3]): Below limit of detection
- Activity (Yersinia pestis [4]): 33 CFU/g
- Activity (Yersinia pestis [5]): Below limit of detection
- Activity (Yersinia pestis [6]): Below limit of detection
- Activity (African green monkey [7]): 0.6 mg/dL
- AUC at 24 h [8]: 319 µg·h/mL
- Activity (African green monkey [9]): 0.55 mg/dL
- Activity (African green monkey [10]): 46 IU/L
- AUC at 24 h [11]: 208 µg·h/mL
- Activity (Yersinia pestis [12]): 1.2 ×10⁶ CFU/g
- Activity (African green monkey [13]): 63 IU/L
- Activity (Yersinia pestis [14]): 6.2 ×10⁶ CFU/g
- Activity (African green monkey [15]): 19 mg/dL
- Activity (Yersinia pestis [16]): Below limit of detection
- Cmax [17]: 106 µg/mL
- Activity (Yersinia pestis [18]): 44 CFU/g
- Activity (Yersinia pestis [19]): 19 CFU/g
- Activity (African green monkey [20]): 0.8 mg/dL
- Activity (Yersinia pestis [21]): 39 CFU/g
- half-life [22]: 1.8 h
- Activity (African green monkey [23]): 379 IU/L
- survival at 6.25 mg/kg (Yersinia pestis [24]): 17%
- Activity (Yersinia pestis [25]): 16 CFU/g
- half-life [26]: 1.7 h
- Activity (Yersinia pestis [27]): Below limit of detection
